Laboratory results published in patent US20260265305A1, “POLYPEPTIDE DERIVATIVE FOR ORAL DELIVERY” (Hangzhou Sciwind Biosciences Co., Ltd., priority 2023, published 2026).
Like-named read-outs stand apart in the source and are kept apart here. Numbered stars: 1 amine (or outer) side, 2 acyl side, 3 side chain; on linkers, the order of the positions; unused ones are H or OH. Peptide text beside a SMILES is read from it. * marks the point of attachment. C20 diacid = O=C(O)CCCCCCCCCCCCCCCCCCC(=O)*; γGlu = O=C(O)[C@H](CCC(=O)[*:2])N[*:1]; βAsp = O=C(O)[C@H](CC(=O)[*:2])N[*:1]; Trx = NC[C@H]1CC[C@H](C(=O)O)CC1; AEEA = NCCOCCOCC(=O)O; Inp = O=C(O)C1CCNCC1

Assays:
amylin receptor (hAMY3R) = target: T1, amylin receptor (hAMY3R) (Homo sapiens, UniProt O60896+P30988); assay: Amylin receptor agonism testing, CRE-luciferase assay in stably transfected CHO-K1/Ga15/AMY3 cells; type: cell-based; conditions: for Fold change in activity against hAMY3R: relative to D1 as benchmark
T1 construct: host or cells: CHO-K1/Ga15/AMY3 cells, further stably transfected with a CRE-luciferase plasmid
T1 sequence (P30988 25-474): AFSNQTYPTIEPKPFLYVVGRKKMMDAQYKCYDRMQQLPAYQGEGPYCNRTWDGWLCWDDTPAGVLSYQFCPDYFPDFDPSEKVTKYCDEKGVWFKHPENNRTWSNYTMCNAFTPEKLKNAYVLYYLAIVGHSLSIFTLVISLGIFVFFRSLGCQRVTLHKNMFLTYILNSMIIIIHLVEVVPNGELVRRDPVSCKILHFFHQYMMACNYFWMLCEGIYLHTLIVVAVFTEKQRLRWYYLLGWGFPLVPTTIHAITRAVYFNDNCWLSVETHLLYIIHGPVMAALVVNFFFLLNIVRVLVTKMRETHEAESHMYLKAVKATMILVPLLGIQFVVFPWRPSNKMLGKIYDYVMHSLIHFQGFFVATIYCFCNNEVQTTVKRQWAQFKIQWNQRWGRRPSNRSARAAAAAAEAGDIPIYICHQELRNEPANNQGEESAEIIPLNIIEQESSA
T1 sequence (O60896 24-148): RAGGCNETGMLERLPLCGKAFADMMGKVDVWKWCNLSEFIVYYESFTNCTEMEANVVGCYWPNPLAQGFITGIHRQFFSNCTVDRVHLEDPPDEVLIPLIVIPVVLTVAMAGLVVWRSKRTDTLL

[1] = target: T2, calcitonin receptor (hCTR) (Homo sapiens, UniProt P30988); assay: Calcitonin receptor agonism, CRE-luciferase assay in stably transfected CHO-K1/CALCR/Ga15 cells; type: cell-based; conditions: for Fold change in activity against hCTR: relative to D1 as benchmark
T2 construct: host or cells: CHO-K1/CALCR/Ga15 cells, further stably transfected with a CRE-luciferase plasmid
T2 sequence (P30988 25-474): T1 sequence (P30988 25-474)
Protocol: Using the standard protocol, CHO-K1/CALCR/Ga15 cells (purchased from GenScript, with the calcitonin receptor constructed already) were transfected with a plasmid containing a luciferase expression cassette driven by multiple copies of cAMP response elements (CREs). The cells were cultured in an F12 medium containing 200 ug/mL Zeocin, 2 ug/mL puromycin, and 100 ug/mL hygromycin to afford a stably transfected calcitonin receptor/CRE-luc cell line.
To each well of a white 96-well plate was added 50 μL of the tested sample solution at a respective concentration.
The stably transfected calcitonin receptor/CRE-luc CHO cells were resuspended in the growth medium at a certain density, and 50 μL of the cell suspension was added at a density of about 20,000 cells per well to the white 96-well plate containing the tested sample solution. After incubation of 24 hours at 37° C. and 5% CO2, 100 μL of a Luciferase substrate was added to each well, incubated for 3 minutes, and finally was tested for luminescence on SpectraMax L (Molecular Devices) with the software SoftMax Pro 7.0.3 GxP. A standard curve was plotted using the fluorescent intensities for calculation of EC50.

[2] = Heat accelerated stability assay of polypeptide solutions (40° C., pH about 7.4), reversed phase chromatography; type: physicochemical; conditions: 40° C.; for Concentration change on 7 d / Concentration change on 26 d: pH about 7.4, 1 mg/mL; for Concentration change on 7 d / Purity change on 7 d: Day 7; for Concentration change on 26 d / Purity change on 26 d: Day 26; for Purity change on 7 d / Purity change on 26 d: reversed phase chromatography 214 nm; for Purity change on 7 d: purity on 7 d − purity on 0 d; for Purity change on 26 d: purity on 26 d − purity on 0 d
Method in brief: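 Polypeptide derivative lyophilisate (1 mg/mL) with sodium dihydrogen phosphate (1.42 mg/mL) in water, pH about 7.4, sterile-filtered, vialed and held at 40° C; sampled on days 7 and 26. After centrifugation, concentration and purity (target/total peak area) by C18 RP-HPLC, TFA/ACN gradient, 280 and 214 nm.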

[3] = Animal study: weight change and accumulated food intake in SD rats after subcutaneous dosing; type: in vivo, SD (Sprague Dawley) rats; conditions: 10 nmol/kg subcutaneous; for effect on body weight of SD rats: FIGS. 1 and 3; for effect on accumulated food intake of SD rats: FIGS. 2 and 4
Excerpt: SD (Sprague Dawley) rats weighing 200-250 g were used for this study. The rats were received at least 10-14 days before the study began such that they could accommodate to the experimental environment. After arrival, they were exposed to a reversed light/dark cycle (i.e., lights switched off in daytime and on in nighttime) for two weeks and were individually housed for the first week so as to ensure high data accuracy and test sensitivity. Throughout the acclimation and experiment period, the rats had free access to food and water. 5-8 rats were assigned to each testing group for the derivatives and were subcutaneously administered the derivatives at a dose of 10 nmol/kg or a vehicle (20 mM phosphate buffer, PB, pH 7.0), and the dosing timepoint was recorded for each group. After dosing, the rats were put back into cages where they were housed and could have access to food and water. Food consumption and weight change of the rats were recorded online or manually every 24 hours. Percent of weight change=(BWTn−BWT0)/BWT0*100%, wherein BW represented the value of body weight, and T0 and Tn represented the time point of dosing and n hours post dose respectively. Dots in the figures were represented utilizing mean±standard error of the mean (SEM).

[4] = incubation of 24 hours, Table 4, read-out: EC50, activity against the calcitonin receptor in cells
[5] = incubation of 24 hours, Table 3, read-out: EC50, activity against the amylin receptor in cells

Row | Compound | EC50 (amylin receptor (hAMY3R); Table 5 integrated analysis, read-out: hAMY3R EC50) | Fold change in activity against hAMY3R (amylin receptor (hAMY3R)) | EC50 [1, 4] | Fold change in activity against hCTR [1] | Concentration change on 7 d [2] | Concentration change on 26 d [2] | Purity change on 7 d [2] | Purity change on 26 d [2] | effect on body weight of SD rats [3] | effect on accumulated food intake of SD rats [3] | EC50 (amylin receptor (hAMY3R); [5]) | EC50 ([1]; Table 5 integrated analysis, read-out: hCTR EC50)
1 | CC(C)C[C@H](NC(=O)[C@H](CCCNC(=N)N)NC(=O)CNC(=O)[C@H](CC(C)C)NC(=O)[C@@H](NC(=O)[C@H](C)NC(=O)[C@@H](NC(=O)[C@H](CO)NC(=O)[C@H](CC(C)C)NC(=O)[C@H](CCC(N)=O)NC(=O)[C@H](CO)NC(=O)[C@H](C)NC(=O)COCCOCCNC(=O)COCCOCCNC(=O)CC[C@H](NC(=O)CCCCCCCCCCCCCCCCCCC(=O)O)C(=O)O)[C@@H](C)O)C(C)C)C(=O)N[C@@H](CO)C(=O)N[C@@H](CC(=O)O)C(=O)N[C@@H](CCC(=O)O)C(=O)N[C@@H](CC(C)C)C(=O)N[C@@H](Cc1c[nH]cn1)C(=O)N[C@@H](CCCNC(=N)N)C(=O)N[C@@H](CC(C)C)C(=O)N[C@@H](CCC(N)=O)C(=O)N[C@@H](CC(=O)O)C(=O)N[C@@H](Cc1ccc(O)cc1)C(=O)N1CCC[C@H]1C(=O)N[C@@H](CCCNC(=N)N)C(=O)N[C@H](C(=O)N[C@@H](CC(=O)O)C(=O)N[C@H](C(=O)NCC(=O)N[C@@H](CO)C(=O)NCC(=O)N[C@@H](CO)C(=O)N1CCC[C@H]1C(N)=O)C(C)C)[C@@H](C)O [M18] ({C20 diacid-γGlu-AEEA-AEEA}-ASQLSTAVLGRLSDELHRLQDYPRTDVGSGSP-NH2) | 0.016 nM | 2.25 | 0.069 nM | 1.246 | No change (concentration change of less than 1% (denoted as “no change”)) | −1.148% | No change | nearly no noticeable change in purity | apparently further reduced | apparently further reduced | – | –
2 | CC(C)C[C@H](NC(=O)[C@H](CCCNC(=N)N)NC(=O)CNC(=O)[C@H](CC(C)C)NC(=O)[C@@H](NC(=O)[C@H](C)NC(=O)[C@@H](NC(=O)[C@H](CO)NC(=O)[C@H](CC(C)C)NC(=O)[C@H](CCC(N)=O)NC(=O)[C@H](CO)NC(=O)[C@H](C)NC(=O)COCCOCCNC(=O)COCCOCCNC(=O)C[C@H](NC(=O)CCCCCCCCCCCCCCCCCCC(=O)O)C(=O)O)[C@@H](C)O)C(C)C)C(=O)N[C@@H](CO)C(=O)N[C@@H](CC(=O)O)C(=O)N[C@@H](CCC(=O)O)C(=O)N[C@@H](CC(C)C)C(=O)N[C@@H](Cc1c[nH]cn1)C(=O)N[C@@H](CCCNC(=N)N)C(=O)N[C@@H](CC(C)C)C(=O)N[C@@H](CCC(N)=O)C(=O)N[C@@H](CC(=O)O)C(=O)N[C@@H](Cc1ccc(O)cc1)C(=O)N1CCC[C@H]1C(=O)N[C@@H](CCCNC(=N)N)C(=O)N[C@H](C(=O)N[C@@H](CC(=O)O)C(=O)N[C@H](C(=O)NCC(=O)N[C@@H](CO)C(=O)NCC(=O)N[C@@H](CO)C(=O)N1CCC[C@H]1C(N)=O)C(C)C)[C@@H](C)O [M25] ({C20 diacid-βAsp-AEEA-AEEA}-ASQLSTAVLGRLSDELHRLQDYPRTDVGSGSP-NH2) | – | 2.118 | 0.138 nM | 0.623 | −1.222% | −2.645% | −2.45% | −5.24% | apparently further reduced | apparently further reduced | 0.017 nM | –
3 | CC(C)C[C@H](NC(=O)[C@H](CCCNC(=N)N)NC(=O)CNC(=O)[C@H](CC(C)C)NC(=O)[C@@H](NC(=O)[C@H](C)NC(=O)[C@@H](NC(=O)[C@H](CO)NC(=O)[C@H](CC(C)C)NC(=O)[C@H](CCC(N)=O)NC(=O)[C@H](CO)NC(=O)[C@H](C)NC(=O)COCCOCCNC(=O)COCCOCCNC(=O)[C@H]1CC[C@H](CNC(=O)CCCCCCCCCCCCCCCCCCC(=O)O)CC1)[C@@H](C)O)C(C)C)C(=O)N[C@@H](CO)C(=O)N[C@@H](CC(=O)O)C(=O)N[C@@H](CCC(=O)O)C(=O)N[C@@H](CC(C)C)C(=O)N[C@@H](Cc1c[nH]cn1)C(=O)N[C@@H](CCCNC(=N)N)C(=O)N[C@@H](CC(C)C)C(=O)N[C@@H](CCC(N)=O)C(=O)N[C@@H](CC(=O)O)C(=O)N[C@@H](Cc1ccc(O)cc1)C(=O)N1CCC[C@H]1C(=O)N[C@@H](CCCNC(=N)N)C(=O)N[C@H](C(=O)N[C@@H](CC(=O)O)C(=O)N[C@H](C(=O)NCC(=O)N[C@@H](CO)C(=O)NCC(=O)N[C@@H](CO)C(=O)N1CCC[C@H]1C(N)=O)C(C)C)[C@@H](C)O [M27] ({C20 diacid-Trx-AEEA-AEEA}-ASQLSTAVLGRLSDELHRLQDYPRTDVGSGSP-NH2) | – | 9.000 | – | 0.161 | – | −2.286% | No change | −1.27% | apparently further reduced | apparently further reduced | – | –
4 | CC(C)C[C@H](NC(=O)[C@H](CCCNC(=N)N)NC(=O)CNC(=O)[C@H](CC(C)C)NC(=O)[C@@H](NC(=O)[C@H](C)NC(=O)[C@@H](NC(=O)[C@H](CO)NC(=O)[C@H](CC(C)C)NC(=O)[C@H](CCC(N)=O)NC(=O)[C@H](CO)NC(=O)[C@H](C)NC(=O)COCCOCCNC(=O)COCCOCCNC(=O)C1CCN(C(=O)CCCCCCCCCCCCCCCCCCC(=O)O)CC1)[C@@H](C)O)C(C)C)C(=O)N[C@@H](CO)C(=O)N[C@@H](CC(=O)O)C(=O)N[C@@H](CCC(=O)O)C(=O)N[C@@H](CC(C)C)C(=O)N[C@@H](Cc1c[nH]cn1)C(=O)N[C@@H](CCCNC(=N)N)C(=O)N[C@@H](CC(C)C)C(=O)N[C@@H](CCC(N)=O)C(=O)N[C@@H](CC(=O)O)C(=O)N[C@@H](Cc1ccc(O)cc1)C(=O)N1CCC[C@H]1C(=O)N[C@@H](CCCNC(=N)N)C(=O)N[C@H](C(=O)N[C@@H](CC(=O)O)C(=O)N[C@H](C(=O)NCC(=O)N[C@@H](CO)C(=O)NCC(=O)N[C@@H](CO)C(=O)N1CCC[C@H]1C(N)=O)C(C)C)[C@@H](C)O [M29] ({C20 diacid-Inp-AEEA-AEEA}-ASQLSTAVLGRLSDELHRLQDYPRTDVGSGSP-NH2) | – | 6.000 | – | 0.551 | – | No change (concentration change of less than 1% (denoted as “no change”)) | No change | −1.2% | apparently further reduced | apparently further reduced | 0.006 nM | 0.156 nM
